Results published in patent US8227604B2, “Hybrid 2-aminotetralin and aryl-substituted piperazine compounds and their use in altering CNS activity” (Wayne State University, priority 2001, dated 2012).
Structures can show the parent of a compound that is named as a salt. Blank lines part the entries; values can stand above or below the compound they belong to.

Assays:
5HT2A receptor = biological target: T1, 5HT2A receptor (Homo sapiens, UniProt P28223); assay: Binding affinity at cloned human 5HT2A receptor, [3H]Ketanserin
T1 construct: expressed in transfected cells
T1 sequence (P28223 whole entry): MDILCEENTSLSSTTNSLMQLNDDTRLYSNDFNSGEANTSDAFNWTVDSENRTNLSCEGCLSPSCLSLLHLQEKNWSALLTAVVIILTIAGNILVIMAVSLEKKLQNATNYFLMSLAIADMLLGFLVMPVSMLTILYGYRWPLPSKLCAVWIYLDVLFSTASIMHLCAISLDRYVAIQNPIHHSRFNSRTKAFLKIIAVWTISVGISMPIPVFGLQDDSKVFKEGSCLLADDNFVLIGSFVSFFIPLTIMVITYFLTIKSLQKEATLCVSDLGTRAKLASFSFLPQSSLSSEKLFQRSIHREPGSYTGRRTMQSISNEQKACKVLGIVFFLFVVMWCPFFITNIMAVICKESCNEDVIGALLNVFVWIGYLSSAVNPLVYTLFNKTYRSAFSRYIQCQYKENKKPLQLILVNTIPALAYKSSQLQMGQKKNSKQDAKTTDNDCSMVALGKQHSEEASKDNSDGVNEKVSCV

5HT1A receptor = biological target: T2, 5HT1A receptor (Homo sapiens, UniProt P08908); assay: Binding affinity at cloned human 5HT1A receptor, [3H]8-OH-DPAT (HA7 cells)
T2 construct: expressed in transfected cells; host or cells: HA7 cells
T2 sequence (P08908 1-422): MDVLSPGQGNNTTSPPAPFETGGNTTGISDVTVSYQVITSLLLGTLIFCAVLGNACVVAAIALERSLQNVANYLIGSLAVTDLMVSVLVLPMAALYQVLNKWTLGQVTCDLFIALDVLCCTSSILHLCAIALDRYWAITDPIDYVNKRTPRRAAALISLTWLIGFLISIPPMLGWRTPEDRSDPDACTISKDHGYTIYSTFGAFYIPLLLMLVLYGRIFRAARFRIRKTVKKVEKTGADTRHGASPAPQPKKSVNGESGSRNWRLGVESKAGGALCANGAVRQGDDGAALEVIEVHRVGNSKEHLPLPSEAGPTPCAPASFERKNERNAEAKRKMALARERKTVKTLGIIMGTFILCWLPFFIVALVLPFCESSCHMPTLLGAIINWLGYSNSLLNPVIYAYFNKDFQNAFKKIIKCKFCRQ
Method: HA7 cells (human receptor) are grown to confluence in DMEM containing 10% fetal calf serum, 0.05% penicillin-streptomycin (pen-strep), and […] of G418. The cells are scraped from the 100 by 20 mm plates and centrifuged at 500·G for 5 min. The pellet is homogenized in 50 mM Tris-HCl, pH 7.7, with a polytron, centrifuged at 27,000·G and resuspended at 10 mg protein/ml in the same buffer. The homogenate is then stored at −70° C. in 1-ml aliquots.
The thawed cells are washed once and resuspended at 10 mg protein/80 ml in 25 mM Tris-HCl containing 100 μM of ascorbic acid and 10 mM of nialamide at pH 7.4. The assay is performed in triplicate in a 96-well plate. To 100 μl of [^3H]8-OH-DPAT (0.5 nM final conc), […] of test compound or buffer and 0.8 ml of cell homogenate (0.1 mg protein/well) is added to each well by a Tomtec Quadra 96. Nonspecific binding is defined using 1 μM dihydroergotamine. The plates are incubated at 25° C. for 60 min, then filtered. The incubation is terminated by rapid filtration through glass fiber filter paper on a Tomtec cell harvester. The filters are washed four times with ice-cold 50 mM Tris-HCl, pH 7.7, dried overnight, bagged with 10 ml scintillation cocktail before counting for 2 min. on a Wallac Betaplate 1205 liquid scintillation counter.

5HT2C receptor = biological target: T3, 5HT2C receptor (Homo sapiens, UniProt P28335); assay: Binding affinity at cloned human 5HT2C receptor, [3H]Mesulergine
T3 construct: expressed in transfected cells
T3 sequence (P28335 33-458): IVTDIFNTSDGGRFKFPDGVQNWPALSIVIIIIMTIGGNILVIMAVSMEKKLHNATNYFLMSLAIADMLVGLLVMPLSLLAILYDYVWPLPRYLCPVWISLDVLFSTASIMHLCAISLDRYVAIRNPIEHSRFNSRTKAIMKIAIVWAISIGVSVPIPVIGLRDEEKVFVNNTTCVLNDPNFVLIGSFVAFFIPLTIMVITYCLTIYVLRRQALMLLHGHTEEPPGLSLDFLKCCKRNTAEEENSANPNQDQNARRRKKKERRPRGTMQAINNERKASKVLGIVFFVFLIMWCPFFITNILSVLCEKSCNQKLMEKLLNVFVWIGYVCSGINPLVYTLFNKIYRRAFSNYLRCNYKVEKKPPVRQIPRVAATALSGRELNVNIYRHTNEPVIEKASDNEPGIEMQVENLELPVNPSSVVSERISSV

D1 receptor = biological target: T4, D1 receptor (Homo sapiens, UniProt P21728); assay: Binding affinity at cloned human D1 receptor, [3H]SCH23390 (LHD1 cells)
T4 construct: expressed in transfected cells; host or cells: LHD1 cells
T4 sequence (P21728 whole entry): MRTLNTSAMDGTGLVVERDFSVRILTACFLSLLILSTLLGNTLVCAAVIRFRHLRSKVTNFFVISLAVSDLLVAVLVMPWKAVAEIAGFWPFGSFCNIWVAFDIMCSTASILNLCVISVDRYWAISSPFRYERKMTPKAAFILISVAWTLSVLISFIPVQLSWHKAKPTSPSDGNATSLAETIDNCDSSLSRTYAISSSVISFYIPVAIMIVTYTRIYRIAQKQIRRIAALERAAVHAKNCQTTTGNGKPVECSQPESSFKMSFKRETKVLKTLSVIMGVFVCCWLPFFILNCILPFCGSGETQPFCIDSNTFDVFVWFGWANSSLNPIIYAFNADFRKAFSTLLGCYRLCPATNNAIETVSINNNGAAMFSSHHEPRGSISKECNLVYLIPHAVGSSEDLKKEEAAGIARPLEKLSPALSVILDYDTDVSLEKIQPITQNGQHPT
Method: LHD1 cells (human receptor) are grown and prepared as described for the HA7 cells as described hereafter. The final pellet is resuspended at 5 mg protein/80 ml in 50 mM Tris-HCl containing 120 mM of NaCl, 5 mM of KCl, 2 mM of CaCl2, and 1 mM of MgCl2, pH 7.4. To wells containing 100 μl of test drug or buffer and […] of [^3H]SCH 23390 (0.18 nM final conc.), is added 0.8 ml of cell homogenate (0.05 mg protein/well), and the plates are incubated at […] for 60 min. Nonspecific binding is determined with 1 μM of SCH 23390.

D4 receptor [1] = biological target: T5, D4 receptor (Homo sapiens, UniProt P21917); assay: Binding affinity at cloned human D4 receptor, [3H]YM-09151-2 (CHO D4.4 cells); parameters: expressed in transfected cells; host or cells: CHO D4.4 cells
T5 sequence (P21917 1-419): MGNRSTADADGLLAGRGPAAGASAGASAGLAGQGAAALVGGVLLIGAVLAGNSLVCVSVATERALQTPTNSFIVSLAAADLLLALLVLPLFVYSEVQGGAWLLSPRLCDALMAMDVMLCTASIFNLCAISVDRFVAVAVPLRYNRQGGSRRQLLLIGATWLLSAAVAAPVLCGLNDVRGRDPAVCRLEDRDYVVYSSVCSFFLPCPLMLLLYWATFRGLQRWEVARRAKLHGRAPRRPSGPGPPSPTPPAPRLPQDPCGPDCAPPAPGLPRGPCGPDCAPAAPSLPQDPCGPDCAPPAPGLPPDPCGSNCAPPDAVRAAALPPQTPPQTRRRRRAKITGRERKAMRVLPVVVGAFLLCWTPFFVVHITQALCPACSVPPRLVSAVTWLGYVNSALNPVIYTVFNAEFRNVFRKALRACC
Method: CHO D4.4 cells (human receptors) are grown to confluence in D4 Puromycin medium containing 2 μg/ml puromycin, 5% fetal calf serum and 5 supplemented calf serum and 0.5% pen-strep. The cells are harvested as described for D2 and D3 cells and used at a concentration of 0.15 mg protein/well in the [^3H]YM-09151-2 binding assay.

D4 receptor [2] = biological target: T5, D4 receptor; assay: Agonist potency by [3H]thymidine incorporation (mitogenesis), D4; format: cell-based; parameters: expressed in transfected cells
Method: (§1) Potential as domaminergenic agonists was assayed by ^3H-thymidine incorporation by standard techniques.
The mitogenesis study results presented in Table 7 assay the ability of these ligands to act as agonists or antagonists. The EC50 values thus indicate intrinsic activities or functional activities of these compounds. The value of % maximum stimulation indicates whether a compound is a partial agonist or full agonist. Generally, a value greater than 80% is considered as a full agonist and anything less than 80% is considered as a partial agonist. A compound will be considered antagonist if it produces a negative result (no [3H]thymidine incorporation) in the assay. All the compounds reported in Table 7 are either full agonists or partial agonists.

D2 receptor = biological target: T6, D2 receptor (Homo sapiens, UniProt P14416); assay: Agonist potency by [3H]thymidine incorporation (mitogenesis), D2; format: cell-based; settings: read-out: D2 % Maxm Stim
T6 construct: expressed in transfected cells
T6 sequence (P14416 whole entry): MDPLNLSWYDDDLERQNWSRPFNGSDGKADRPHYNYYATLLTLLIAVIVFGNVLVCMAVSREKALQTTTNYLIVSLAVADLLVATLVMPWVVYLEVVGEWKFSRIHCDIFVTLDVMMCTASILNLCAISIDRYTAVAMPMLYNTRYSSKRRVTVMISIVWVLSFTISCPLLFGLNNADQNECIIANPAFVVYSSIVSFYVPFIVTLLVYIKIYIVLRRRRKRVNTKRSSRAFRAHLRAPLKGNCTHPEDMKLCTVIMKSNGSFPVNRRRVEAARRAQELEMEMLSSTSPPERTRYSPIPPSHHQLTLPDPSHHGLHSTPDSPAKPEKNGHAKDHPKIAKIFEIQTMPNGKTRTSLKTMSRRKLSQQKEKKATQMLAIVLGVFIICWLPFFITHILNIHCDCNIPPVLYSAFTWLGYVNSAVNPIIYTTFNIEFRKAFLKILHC
Method: as §1
The EC50 values thus indicate intrinsic activities or functional activities of these compounds. The value of % maximum stimulation indicates whether a compound is a partial agonist or full agonist. Generally, a value greater than 80% is considered as a full agonist and anything less than 80% is considered as a partial agonist.

D2L receptor = biological target: T7, D2L receptor (Homo sapiens, UniProt P14416); assay: Inhibition constants for binding to cloned D2L receptor expressed in HEK cells, [3H]spiperone
T7 construct: expressed in transfected cells; host or cells: HEK cells
T7 sequence (P14416 whole entry): as above
Method: (§2) Inhibition constants for binding to cloned D2L and D3 receptors expressed in HEK cells by displacing [^3H] spiperone were measured for several compounds.

D3 receptor = D3 receptor (Homo sapiens, UniProt P35462); assay: Inhibition constants for binding to cloned D3 receptor expressed in HEK cells, [3H]spiperone
D3 receptor, sequence (P35462 whole entry): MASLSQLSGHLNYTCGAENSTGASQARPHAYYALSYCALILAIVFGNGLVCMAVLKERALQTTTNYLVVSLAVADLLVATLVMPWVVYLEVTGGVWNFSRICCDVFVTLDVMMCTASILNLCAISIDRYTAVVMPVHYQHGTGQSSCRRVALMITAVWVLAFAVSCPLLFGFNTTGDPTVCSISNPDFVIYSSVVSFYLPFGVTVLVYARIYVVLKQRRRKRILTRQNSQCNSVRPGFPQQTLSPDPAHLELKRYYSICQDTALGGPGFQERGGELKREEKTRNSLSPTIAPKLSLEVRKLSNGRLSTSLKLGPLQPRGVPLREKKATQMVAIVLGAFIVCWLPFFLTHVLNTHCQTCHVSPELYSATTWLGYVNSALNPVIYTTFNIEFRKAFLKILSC
Method: as §2

SMILES: C#CCN(CCCCN1CCN(c2ccccc2)CC1)C1CCc2ccc(O)cc2C1 (stereo not drawn) (as salt: HBr) [Compound 12b, 7-Hydroxy-2-[N-propargyl-(N-(4-phenylpiperazin-1-yl)-butyl)amino]tetralin]
melting point: 182 to 186 °C

SMILES: CCCN(CCN1CCN(c2ccccc2)CC1)C1CCc2nc(N)ncc2C1 (stereo not drawn) (as salt: HCl) [Compound 23, 2-Amino-6-[N-propyl-(N-(4-phenylpiperazin-1-yl)-ethyl)amino]-5,6,7,8-tetrahydrobenzopyrimidine]
melting point: 97 to 102 °C

SMILES: CCCN(CCC)C1CCc2ccc(O)cc2C1 (stereo not drawn) [Compound 7-OH-DPAT, reference compound]
Ki (5HT2A receptor): > 10000 nM | Ki (5HT1A receptor): 193 ± 3.4 nM | Ki (5HT2C receptor): > 10000 nM | Ki (D1 receptor): 2550 ± 1080 nM

SMILES: C#CCN(CCCCN1CCN(c2ccccc2)CC1)C1CCc2ccc(O)cc2C1 (stereo not drawn) [Compound 12b, 7-Hydroxy-2-[N-propargyl-(N-(4-phenylpiperazin-1-yl)-butyl)amino]tetralin]
Ki (5HT2A receptor): 260 ± 41.9 nM | Ki (5HT1A receptor): 15.2 ± 3.34 nM | affinity at the D4 receptor (D4 receptor [1]): good affinity | Ki (D4 receptor [1]; cloned human D4): 28.9 ± 4.41 nM | Ki (5HT2C receptor): 3220 ± 52.9 nM | EC50 (D4 receptor [2]; [3H]thymidine incorporation): 23.9 ± 3.57 nM | D4 % Maxm Stim (D4 receptor [2]; [3H]thymidine incorporation, >80% full agonist): 85.15 ± 17.64% | agonist character at the D4 receptor (D4 receptor [2]; functional assay): full agonists | Ki (D1 receptor): 677 ± 34 nM | Emax (D2 receptor): 85 ± 6.26%

SMILES: CCCN(CCN1CCN(c2ccccc2)CC1)C1CCc2nc(N)ncc2C1 (stereo not drawn) [Compound 23, 2-Amino-6-[N-propyl-(N-(4-phenylpiperazin-1-yl)-ethyl)amino]-5,6,7,8-tetrahydrobenzopyrimidine]
Ki (D2L receptor): 1120 ± 144 nM

SMILES: CCCN(CCN1CCN(c2ccccc2)CC1)C1CCc2sc(N)nc2C1 (stereo not drawn) [Compound 25, 2-Amino-5-[N-propyl-(N-(4-phenylpiperazin-1-yl)-ethyl)amino]-4,5,6,7-tetrahydrobenzothiazole]
Ki (D3 receptor; D3 expressed in HEK cells): 4.14 ± 0.55 nM | D2L/D3 (D3 receptor; ratio of Ki D2L to Ki D3, HEK cells, [3H]spiperone): 502 | Ki (D2L receptor): 2080 ± 162 nM

Continued, values first:

melting point: 152 to 156 °C
SMILES: CCCN(CCCCN1CCN(c2ccccc2)CC1)C1CCc2ccc(O)cc2C1 (stereo not drawn) (as salt: HBr) [Compound 15b, 7-Hydroxyl-2-[N-propyl-(N-(4-phenylpiperazin-1-yl)-butyl)amino]tetralin]

melting point: 155 to 159 °C
SMILES: CCCN(CCCCN1CCN(c2cccc(Cl)c2Cl)CC1)C1CCc2ccc(O)cc2C1 (stereo not drawn) (as salt: HCl) [Compound 19a, 7-Hydroxy-2-[N-propyl-(N-(4-(2,3-dichlorophenyl)-piperazin-1-yl)-butyl)amino]tetralin]

melting point: 180 to 183 °C
SMILES: C#CCN(CCCCN1CCN(c2cccc(Cl)c2Cl)CC1)C1CCc2ccc(O)cc2C1 (stereo not drawn) (as salt: HCl) [Compound 19b, 7-Hydroxy-2-[N-propargyl-(N-(4-(2,3-dichlorophenyl)-piperazin-1-yl)-butyl)amino]tetralin]

melting point: 262 to 264 °C
SMILES: CCCN(CCc1ccc(N)cc1)CCN1CCN(c2ccccc2)CC1 (as salt: hydrochloride) [Compound 29a, 4-(2-{[2-(4-Phenyl-piperazin-1-yl)-ethyl]-propyl-amino}-ethyl)-phenylamine]

melting point: 278 to 284 °C
SMILES: CCCN(CCc1cccc(N)c1)CCN1CCN(c2ccccc2)CC1 (as salt: hydrochloride) [Compound 29b, 3-(2-{[2-(4-Phenyl-piperazin-1-yl)-ethyl]-propyl-amino}-ethyl)-phenylamine]

melting point: 224 to 226 °C
SMILES: CCCN(CCc1ccc(NS(=O)(=O)c2ccc(Cl)cc2)cc1)CCN1CCN(c2ccccc2)CC1 (as salt: hydrochloride) [Compound 30a, 4-Chloro-N-[4-(2-{[2-(4-phenyl-piperazin-1-yl)-ethyl]-propyl-amino}-ethyl)-phenyl]-benzenesulfonamide]

melting point: 220 to 224 °C
SMILES: CCCN(CCc1cccc(NS(=O)(=O)c2ccc(Cl)cc2)c1)CCN1CCN(c2ccccc2)CC1 (as salt: hydrochloride) [Compound 30b, 4-Chloro-N-[3-(2-{[2-(4-phenyl-piperazin-1-yl)-ethyl]-propyl-amino}-ethyl)-phenyl]-benzenesulfonamide]
